From US20250134876A1, “METHODS OF TREATING A CANCER OVEREXPRESSING ONE OR MORE BCL-2 FAMILY PROTEINS” (Kartos Therapeutics, Inc., priority 2021, published 2025)

How the values were obtained:
[1] = test system: CLL tumor cells; assay: p53 and Bcl-2 family protein expression and apoptosis (cPARP+) in patient CLL tumor cells treated ex vivo, intracellular flow cytometry; type: cell-based, human; details: CLL tumor cells on HS-5 stromal cells, 24 hours
Protocol: The effect of the compound of Formula (I) on the expression of p53 along with anti-apoptotic and pro-apoptotic proteins was assessed in tumors cells isolated from patients diagnosed with CLL. Blood samples were collected prior to the patient receiving any treatment. CLL tumor cells were isolated and incubated on HS-5 stromal cells for 24 hours and then treated with the compound of Formula (I) for 24 hours. p53 and Bcl-2 family proteins were measured by intracellular flow cytometry and shown as median fluorescent intensity (MFI). The percent cPARP+ is shown above the level of basal spontaneous apoptosis. CLL tumor cells were cultured on HS-5 stromal cells were then treated with an increasing concentrations of the compound of Formula (I) for 24 hours. The result was an increase in intracellular P53 levels along with a decrease in anti-apoptotic Bcl-XL and Mcl-1 levels, and an increase in pro-apoptotic Bax.

[2] = test system: MV-411 AML cell line (TP53 wild-type); assay: Bcl-2 family protein expression in MV-411 AML cells, intracellular flow cytometry; type: cell-based; details: MV-411 cells, 72 hours, above the concentration to induce cell stasis
Protocol: (§1) The effect of the compound of Formula (I) on inducing apoptosis along with the expression of anti-apoptotic and pro-apoptotic protein expression in the MV-411 AML cell was assessed. […] Molecular Cancer Therapeutics. 2015 Mar. 1; 14(3):649-58. After 72 hours of culture with the compound of Formula (I), MV-411 (TP53 wt) and HEL-92 cells (TP53 mutant) were stained with antibodies against various Bcl-2 family proteins and data acquired using intracellular flow cytometry (FIG. 5(B)).

[3] = test system: HEL-92 cells (TP53 mutant); assay: Bcl-2 family protein expression in HEL-92 cells, intracellular flow cytometry; type: cell-based; details: 72 hours
Protocol: as §1

[4] = test system: UKE-1 myelofibrosis cell line (TP53 wild-type); assay: Pro-apoptotic protein expression in UKE-1 myelofibrosis cell line, intracellular flow cytometry; type: cell-based; details: UKE-1 cells, 2.5 pM, 24, 48 and 72 hours, time-dependent
Protocol: The compound of Formula (I) induces Bak, Bax and BIM expression in a myelofibrosis cell line. The UKE-1 myelofibrosis cell line (TP53 wild-type) was cultured for 24, 48 and 72 hours with 2.5 pM of compound (equivalent to levels observed in vivo following administration in patients) and stained with antibodies against various pro-apoptotic protein using intracellular flow cytometry techniques. […] The upper line is cells treated with the compound of Formula (I) while the lower line is a control (no treatment).

[5] = test system: patients with R/R myelofibrosis; assay: mRNA expression in cells isolated from treated patients with R/R myelofibrosis; type: in vivo, human; details: 120 mg or 240 mg for 5 or 7 days, C1D1 pre-dose vs C1D5
Protocol: Treatment of patients with the compound of Formula (I) induces p21, Bax and Puma expression in vivo in patients with R/R myelofibrosis or R/R AML. mRNA expression in cells isolated from patients was evaluated pre-dosing on day 1 and 24 hours after the first course of treatment with the compound of Formula (I) in patients with R/R myelofibrosis (FIG. 7(A)). The compound of Formula (I) is administered at 120 mg for 7 days for Cohort 1, 240 mg for 7 days for Cohort 2, 240 mg for 7 days for Cohort 3, and 240 mg for 5 days for Cohort 4. Samples taken at pre-dose on Cycle 1, Day 1 (C1D1) and Cycle 1, Day 5 (C1D5).

[6] = test system: patients with R/R AML; assay: Gene expression in PBMC from treated patients with R/R AML; type: in vivo, human
Protocol: For patients with R/R AML, the compound of Formula (I) was administered at 120 mg (n=3), 180 mg (n=2), 240 mg (n=8), or 360 mg (n=4) daily for QD for seven days in dose-escalation phase, with different ‘off-treatment’ duration depending on cohort assignments. Samples taken at pre-dose on Cycle 1, Day 1 (C1D1) and Cycle 1, Day 5 (C1D5).
Treatment of patients with R/R AML with the compound of Formula (I) induces expression of genes involved in the Bcl-2 apoptotic pathway. […] FIG. 8 illustrates induced expression of Bcl-2 genes in PBMC following treatment of R/R AML patients with the compound of Formula (I). Eighteen genes were included in analysis: BAD, BAX, BCL2L1, MCL1, BCL2, BID, CAPN2, CASP10, CASP3, CASP7, CASP8, CASP9, TNFRSF10A, TNFRSF10B, TP53, PUMA, NOXA and STAT3. Experimental data was obtained similar to the method set forth in Example 4.

[7] = 120-360 mg QD for seven days, C1D1 pre-dose vs C1D5

Question: CC(C)[C@@H](CS(=O)(=O)C(C)C)N1C(=O)[C@@](C)(CC(=O)O)C[C@H](c2cccc(Cl)c2)[C@H]1c1ccc(Cl)cc1 [Formula (I), 2-((3R,5R,6S)-5-(3-chlorophenyl)-6-(4-chlorophenyl)-1-((S)-1-(isopropylsulfonyl)-3-methylbutan-2-yl)-3-methyl-2-oxopiperidin-3-yl) acetic acid] was tested. Which “expression of anti-apoptotic protein Bcl-2” value [1] did it give?
Answer: decreased expression

Question: What about the “expression of pro-apoptotic protein Bak” value [1] of the same compound?
Answer: increased expression

Question: What about the “cell apoptosis (percent cPARP+ above basal spontaneous apoptosis)” value ([1]; increasing concentrations) of the same compound?
Answer: increased cell apoptosis in a dose-dependent manner

Question: And the “anti-apoptotic Bcl-XL levels” value ([1]; increasing concentrations, MFI)?
Answer: decrease

Question: And the “anti-apoptotic Mcl-1 levels” value ([1]; increasing concentrations, MFI)?
Answer: decrease

Question: And the “intracellular P53 levels” value ([1]; increasing concentrations, MFI)?
Answer: increase

Question: And the “pro-apoptotic Bax levels” value ([1]; increasing concentrations, MFI)?
Answer: increase

Question: What about the “anti-apoptotic Bcl-2 family proteins” value [2] of the same compound?
Answer: decrease

Question: And the “pro-apoptotic effector protein Bak” value [2]?
Answer: increase

Question: What about the “pro-apoptotic effector protein Bax” value [2] of the same compound?
Answer: increase

Question: And the “changes in Bcl-2 family proteins” value [3]?
Answer: no changes

Question: And the “protein expression of BIM” value [4]?
Answer: induced protein expression

Question: And the “protein expression of Bak” value [4]?
Answer: induced protein expression

Question: And the “protein expression of Bax” value [4]?
Answer: induced protein expression

Question: What about the “expression of Bax (mRNA)” value [5] of the same compound?
Answer: increased expression

Question: And the “expression of p21 (mRNA)” value [5]?
Answer: increased expression

Question: And the “expression of Bax (gene expression)” value [6, 7]?
Answer: increased expression

Question: What about the “expression of Puma (gene expression)” value [6, 7] of the same compound?
Answer: increased expression

Question: And the “expression of p21 (gene expression)” value [6, 7]?
Answer: increased expression

Question: And the “expression of genes involved in the BCL2 family/apoptosis pathway” value ([6]; cells isolated from peripheral blood (PBMC), eighteen genes)?
Answer: induced the expression
